According to patent US10442773B2, “Amorphous letermovir and solid pharmaceutical formulations thereof for oral administration” (AICURIS ANTI-INFECTIVE CURES GMBH, priority 2013, dated 2019):
≈ marks a conversion by molar mass, not a printed value. Like-named read-outs stand apart in the source and are kept apart here.

Legend:
[1] = Long-term stability study of Letermovir precipitate tablets; format: physicochemical
Description: Long-term stability studies were conducted with testing of color, dissolution, degradation products and assay at regular intervals to confirm the stability of amorphous Letermovir precipitate tablets.
In addition, disintegration, water content and hardness/breaking load were conducted as informative tests.
Samples of one batch of each dose strength of Letermovir precipitate tablets, packaged in 45 ml HDPE bottles with child-resistant closures were stored at 25° C./60% relative humidity and at 40° C./75% relative humidity. Stability data after 36 months storage were reported.
Additional forced degradation studies were conducted. One batch per dose strength of Letermovir was stored at 60° C. for 3 months. In order to assess the hydrolytic stability, one batch of the 20 mg dose strength was stored with open storage at 40° C./75% relative humidity for 3 months.

[2] = pH-solubility profile of amorphous Letermovir (BCS approach); format: physicochemical; details: standard buffer solutions, thermodynamic from solid
Description: The inventors conducted a solubility study of amorphous Letermovir to investigate its biopharmaceutical status by standardized measures. The inventors orientated on the guidelines of the established Biopharmaceutics Classification System (BCS). The solubility class boundary according to the BCS is based on the highest dose strength of the IR product. By using the BCS approach the equilibrium solubility of amorphous Letermovir under physiological pH conditions is determined. The pH-solubility profile of amorphous Letermovir was determined at 37±1° C. in aqueous media with a pH in the range of 1-7.5. A sufficient number of pH conditions were evaluated to accurately define the pH-solubility profile of amorphous Letermovir. The number of pH conditions for the solubility determination was based on the ionization characteristics of Letermovir. A minimum of three replicate determinations of solubility in each pH condition was conducted. The highest dose of Letermovir is exemplarily 240 mg. When dissolved in 250 ml this equates to a concentration of 0.96 mg/ml.

[3] = test system: HCMV isolates; experiment: Antiviral activity against HCMV isolates; format: cell-based, human cytomegalovirus; details: Human betaherpesvirus 5; HCMV isolates of the respective individual; SD 0.0001 to 0.001
Text: The term “pharmaceutical activity” of Letermovir denotes the antiviral activity against HCMV isolates of the respective individual, being in the range of EC50±SD of 0.0005 to 0.005±0.0001 to 0.001.

[4] = Absolute bioavailability, Cohort 1 of a clinical trial (oral vs intravenous); format: in vivo; details: human, plasma; single 30 mg oral dose (amorphous) vs 30 mg intravenous 30 min infusion; based on AUC0-last; 12 healthy female subjects
Description: Assessment of absolute bioavailability after oral administration of 30 mg Letermovir in the amorphous state versus a 30 minute intravenous administration of 30 mg Letermovir in 150 ml saline solution 0.9%. Cohort 1 of the trial was conducted in an open-label, randomized (to treatment sequence), single center cross-over design (2 periods) in 12 healthy female subjects. Subjects received a single intravenous dose of 30 mg Letermovir via a 30-minute infusion in one period (“reference”) and a single oral dose of 30 mg Letermovir in the amorphous state in the other period (“test”). In both periods subjects were in-house from Day −1 to Day 4 (72 h after dosing on Day 1). The washout period between the periods (i.e. the dosing) was at least one week. The 30 mg dose in Cohort 1 was evaluated (see FIGS. 7a and 7b). Plasma concentrations of Letermovir were determined using a lower limit of quantification (LLOQ) of 1.00 ng/mL. Pharmacokinetic parameters AUC0-∞, Cmax, F, AUC0-last, tmax, λZ, t1/2z, CL/F, CL, Vd/F, Vd, MRT, AUC0-∞/D, Cmax/D, AUC0-last/D for Cohort 1 were calculated in WinNonlin using the actual sampling times. Descriptive statistics were calculated for the plasma concentrations and for the derived pharmacokinetic parameters. Statistics included sample size (n), mean, standard deviation (SD), percentage of coefficient of variation (% CV), geometric mean, median, minimum, and maximum. […]

[5] = Ionization characteristics (isoelectric point, pKa); format: physicochemical
Text: The expressions “zwitterionic, zwitterionic properties, and zwitterion” in the context of the present invention for the API Letermovir means that a Letermovir molecule is a neutral molecule having a positive and a negative electrical charge at different locations within the same molecule. Accordingly, the API Letermovir has a charge, which changes with pH when measured in an electric field. […] The net charge is influenced by the pH value. Letermovir has a fixed value of isoelectric point (pI) being the pH value at which the number of cations is equal to that of anions. At this point (pI=5.55) the net electric charge of Letermovir is always zero. The solubility class boundary according to the BCS is based on the highest dose strength of the IR product. By using the BCS approach the equilibrium solubility of amorphous Letermovir under physiological pH conditions is determined. The pH-solubility profile of amorphous Letermovir was determined at 37±1° C. in aqueous media with a pH in the range of 1-7.5. A sufficient number of pH conditions were evaluated to accurately define the pH-solubility profile of amorphous Letermovir. The number of pH conditions for the solubility determination was based on the ionization characteristics of Letermovir. A minimum of three replicate determinations of solubility in each pH condition was conducted.

COc1cccc(N2CCN(C3=Nc4c(F)cccc4[C@H](CC(=O)O)N3c3cc(C(F)(F)F)ccc3OC)CC2)c1 [Letermovir, (S)-{8-Fluoro-2-[4-(3-methoxyphenyl)-1-piperazinyl]-3-[2-methoxy-5-(trifluoromethyl)phenyl]-3,4-dihydro-4-quinazolinyl}acetic acid]
stability under long-term and accelerated storage conditions ([1]; 25°C/60% relative humidity and 40°C/75% relative humidity, 36 months): stable
shelf-life assigned ([1]; real time data at 25°C/60% RH): 36 months
solubility at 24 h ([2]; 37 °C, aqueous buffer, pH range 1 to 7.5, summary of Table 3, read-out: solubility of Letermovir over the pH-range of 1 to 7.5): ≥ 400 µg/mL
solubility at 24 h ([2]; aqueous buffer, pH 2.9 (pKa1 − 1), 37°C±1°C, standard buffer, stirring 24 hours, read-out: Letermovir solubility): 800 µg/mL (≈ 1400 µM)
solubility at 24 h ([2]; aqueous buffer, pH 3.9 (pKa1), 37°C±1°C, standard buffer, stirring 24 hours, read-out: Letermovir solubility): 400 µg/mL (≈ 699 µM)
solubility at 24 h ([2]; aqueous buffer, pH 4.9 (pKa1 + 1), 37°C±1°C, standard buffer, stirring 24 hours, read-out: Letermovir solubility): 400 µg/mL
solubility at 24 h ([2]; aqueous buffer, pH 7.5, 37°C±1°C, standard buffer, stirring 24 hours, read-out: Letermovir solubility): > 1000 µg/mL
solubility at 24 h ([2]; simulated gastric fluid, pH 1, 37°C±1°C, standard buffer, stirring 24 hours, read-out: Letermovir solubility): > 900 µg/mL
EC50 [3]: 0.5 to 5 nM
bioavailability [4]: 76%
pKa1 [5]: 3.9 (pKa1)
isoelectric point (pI) ([5]; pH at which net electric charge is zero): 5.55
